Laboratory results published in patent publication US10059950B2, “Compositions comprising an internalizing nucleic acid molecule, and their methods of use” (B3 BIO, INC., priority 2012, dated 2018).
In the oligonucleotide strings, read from the 5' end, every base follows the letter of its sugar. An asterisk marks phosphorothioate; unmarked linkages are phosphodiester. Other units and linkages are bracketed, terminal groups are in braces. A string of capitals states the bases alone. r = 2'-OH (RNA); f = 2'-fluoro

Tests used:
[1] = system: human prostate cancer cell line PC-3; assay: Flow cytometric-based screening assay for internalization in PC-3 cells; type: cell-based
Protocol: In illustrating a screening process for internalization, from clones selected for further analysis from the selection process, a flow cytometric-based assay for binding and/or internalization was utilized. Typically, the assay was performed by incubating 200 nM of each clone with 5×10^5 target cells in 100 ul PBS containing 0.5% bovine serum albumin (BSA) in a 13 mm tube for 2 hours @ 37° C. A first portion of the cells was then treated with RNAse to remove any of the clone remaining bound to the surface of the cells, so as to allow detection and quantitation of internalized clone (i.e., measuring internalization). In parallel, a second portion of the cells was treated with PBS containing 0.5% BSA (lacking added RNase activity to enzymatically cleave […]), so as to allow detection and quantitation of clone remaining bound to the cell surface, as well as internalized clone (i.e., measuring binding and internalization). Following further washes with phosphate-buffered saline, the cells were fixed in 1% formaldehyde and then subjected to analysis on a flow cytometer using commercially available analysis software. In performing analyses by flow cytometry, several assay controls were used. As an assay control representing either no or background (e.g., non-specific) internalization, an RNA molecule resulting from a selection process for binding a molecule not detectably expressed on target cells was used. The assay control RNA molecule was further modified with Alexa 647, and then used for further characterization of clones from the selection process described herein. For ease of description and reference for this Example, this assay control RNA molecule is referred to herein as Negative Control 1 (see, e.g., Table 5). As an additional assay control that represents either no or background internalization, used was an RNA molecule from the starting library which was chosen from the library prior to beginning a selection method described herein, and that was further modified with Alexa 647. This assay control RNA molecule is referred to herein as Negative Control 2 (see, e.g., Tables 5, 7, and 8). Additionally, fluorescence of unstained cells was measured, as a control, to quantitate any background fluorescent properties of the cells themselves as encountered in analyses by flow cytometry (“Unstained”), as opposed to fluorescent signal mediated by the RNA molecules further modified to include Alexa 647. Shown in Table 5 are the results of analyses by flow cytometry in which measured and quantitated was the ability of clones, selected on the basis of sequence convergence, to internalize into target cells represented by human prostate cancer cell line PC-3. The units of fluorescence in Table 5 represent mean fluorescence (“Mean”). The fold increase (determined by dividing the mean fluorescence of a clone by the mean fluorescence of unstained cells) is an indicator of the ability of a clone, or a clone which has been further modified to include an effector moiety, to internalize into the target cells (Table 5; “Fold Increase”).
The truncations, illustrated in Table 6, were each further modified with a detectable moiety, Alexa 647, and analyzed by a flow cytometric-based screening assay for internalization using the methods outlined in Example 2, to determine minimal sequences that maintain the full ability to internalize into human prostate cancer cells. Shown in Table 7 are the results of analyses by flow cytometry in which measured and quantitated was the ability of each truncation to internalize into target cells represented by human prostate cancer cell line PC-3. The units of fluorescence in Table 7 represent mean fluorescence intensity (“Mean”). […]

[2] = system: A549 human lung adenocarcinoma; assay: Flow cytometric binding and internalization assay, A549; type: cell-based; settings: A549, malignant
Protocol: (§1) In illustrating a screening process for internalization, from clones selected for further analysis from the selection process, a flow cytometric-based assay for binding and/or internalization was utilized. Typically, the assay was performed by incubating 200 nM of each clone with 5×10^5 target cells in 100 ul PBS containing 0.5% bovine serum albumin (BSA) in a 13 mm tube for 2 hours @ 37° C. A first portion of the cells was then treated with RNAse to remove any of the clone remaining bound to the surface of the cells, so as to allow detection and quantitation of internalized clone (i.e., measuring internalization). In parallel, a second portion of the cells was treated with PBS containing 0.5% BSA (lacking added RNase activity to enzymatically cleave […]), so as to allow detection and quantitation of clone remaining bound to the cell surface, as well as internalized clone (i.e., measuring binding and internalization). […] Additionally, fluorescence of unstained cells was measured, as a control, to quantitate any background fluorescent properties of the cells themselves as encountered in analyses by flow cytometry (“Unstained”), as opposed to fluorescent signal mediated by the RNA molecules further modified to include Alexa 647. […] The units of fluorescence in Table 5 represent mean fluorescence (“Mean”). […]

[3] = system: K562 human chronic myelogenous leukemia; assay: Flow cytometric binding and internalization assay, K562; type: cell-based; settings: K562, malignant
Protocol: as §1

[4] = system: PrEC human primary prostate epithelial cells; assay: Flow cytometric binding and internalization assay, PrEC; type: cell-based; settings: nonmalignant
Protocol: as §1

[5] = system: MCF7 human breast adenocarcinoma; assay: Flow cytometric binding and internalization assay, MCF7; type: cell-based; settings: MCF7, malignant
Protocol: as §1

[6] = system: WIL-2 B lymphoblastoid cell line transformed with Epstein Barr virus; assay: Flow cytometric binding and internalization assay, WIL-2; type: cell-based, human; settings: WIL-2, transformed cells
Protocol: as §1

[7] = Table 7, truncations modified with Alexa 647, PC-3
[8] = Table 8, mutants of E3-45, PC-3

Molecule	Fold increase (mean fluorescence intensity / unstained cells) [1, 7]	Mean (mean fluorescence intensity) [1, 7]	Fold increase (mean fluorescence intensity / unstained cells) [1, 8]	Mean (mean fluorescence intensity) [1, 8]	ability to bind and internalize as compared to wildtype iNA (E3-45) ([1]; PC-3, in words)	further results
GGGAGGCUGGGCUUUCGGCAAC (rGrGrGrArGrGfCfUrGrGrGfCfUfUfUfCrGrGfCrArAfC; aptamer; Alexa 647 label attached, position not given here, further chemistry not fully specified) [E3-22, truncation of iNA E3, 22 bases]	1.0	80.7	–	–	–	–
GGGAGGCUUUCGGGCUUUCGGCAACAUCAGCC (rGrGrGrArGrGfCfUfUfUfCrGrGrGfCfUfUfUfCrGrGfCrArAfCrAfUfCrArGfCfC; aptamer; Alexa 647 label attached, position not given here, further chemistry not fully specified) [E3-32, truncation of iNA E3, 32 bases]	11.8	944	–	–	–	–
GGGUGCGGUACUUUCGGGCUUUCGGCAACAUCAGCCCCUCAGGACG (rGrGrGfUrGfCrGrGfUrAfCfUfUfUfCrGrGrGfCfUfUfUfCrGrGfCrArAfCrAfUfCrArGfCfCfCfCfUfCrArGrGrAfCrG; aptamer; Alexa 647 label attached, position not given here, further chemistry not fully specified) [E3-45, truncation of iNA E3, 45 bases; wildtype for mutants 1-8]	8.6	690	5.4	470	–	–
mutant 1: assay control mutant of E3-45, mutation in a loop not containing the conserved motif UUUCGG (GGGUGCGAAACUUUCGGGCUUUCGGCAACAUCAGCCCCUCAGACCG; listed as RNA, chemistry not fully specified)	–	–	4.7	405	ability to internalize equally	–
mutant 2: mutant of E3-45 with the conserved motif UUUCGG mutated in a loop portion (GGGUGCGGUACUAAAGGGCUUUCGGCAACAUCAGCCCAAAAGGACG; aptamer; listed as RNA, chemistry not fully specified)	–	–	1.5	127	loss of the ability to bind and internalize	–
mutant 3: mutant of E3-45 with the conserved motif UUUCGG mutated in a loop portion (GGGUGCGGUACUUUCGGGCUAAAGGCAACAUCAGCCCCUCAGGACG; aptamer; listed as RNA, chemistry not fully specified)	–	–	1.6	142	loss of the ability to bind and internalize	–
mutant 4: mutant of E3-45 with the conserved motif UUUCGG mutated in a loop portion (GGGUGCGGUACUUUCGGGCUUUCAAAAACAUCAGCCCCUCAGGACG; aptamer; listed as RNA, chemistry not fully specified)	–	–	2.0	176	loss of the ability to bind and internalize	–
mutant 5: site-directed mutant of E3-45 in a loop portion containing a conserved motif (GGGUGCGGUACUUUCGGGCUUUCGGCUUUAUCAGCCCCUCAGGACG; listed as RNA, further chemistry not given here)	–	–	1.9	164	–	–
mutant 6: site-directed mutant of E3-45 in a loop portion containing a conserved motif (GGGUGCGGUACUUUCGGGCUUUCGGCCCCAUCAGCCCCUCAGGACG; listed as RNA, further chemistry not given here)	–	–	1.9	167	–	–
mutant 7: site-directed mutant of E3-45 in a loop portion containing a conserved motif (GGGUGCGGUACUUUCGGGCUUUCGGCAACUAUAGCCCCUCAGGACG; listed as RNA, further chemistry not given here)	–	–	1.8	153	–	–
mutant 8: mutant of E3-45 with loop portion mutated to 5′ to 3′ UUUCGAG (GGGUGCGGUACUUUCGGGCUGGCACUUUCGAAAGCCCCUCAGGACG; listed as RNA, chemistry not fully specified)	–	–	1.5	130	loss of binding and internalization	–
GGGAGGACGAUGCGGUACUUUCGGGCUUUCGGCAACAUCAGCCCCUCAGGACGCAAUUUCUC (nucleic acid, Alexa 647 label attached, position not given here, further chemistry not fully specified, truncation of iNA E3, 62 bases) rGrGrGrArGrGrAfCrGrAfUrGfCrGrGfUrAfCfUfUfUfCrGrGrGfCfUfUfUfCrGrGfCrArAfCrAfUfCrArGfCfCfCfCfUfCrArGrGrAfCrGfCrArAfUfUfUfCfUfC	10.7	858	–	–	–	–
D11: RNA iNA clone from Round 14 toggle selection, variable region SEQ ID NO:20 UCCCCGGAUUUCGGAUACGAUCCCUCAUCCCUUGACCGCA, 2′ fluoro pyrimidines (nucleic acid, Alexa 647 attached for internalization assay, further chemistry not fully specified) rGrGrGrArGrGrAfCrGrAfUrGfCrGrGfUfCfCfCfCrGrGrAfUfUfUfCrGrGrAfUrAfCrGrAfUfCfCfCfUfCrAfUfCfCfCfUfUrGrAfCfCrGfCrArAfUfUfUfCfUfCfCfUrAfCfUrGrGrGrAfUrArGrGfUrGrGrAfUfUrAfU	–	–	–	–	–	Fold increase [2]: 3.2; Fold increase [3]: 19.0; internalization into cells (conclusion from Table 5) ([1]; PC-3, in words): mediate internalization into cells; Fold Increase (mean fluorescence of clone / unstained cells) ([1]; Table 5, 200 nM Alexa 647-modified clone, 2 hours @ 37° C., PC-3): 5.8; Mean (mean fluorescence) ([1]; Table 5, 200 nM Alexa 647-modified clone, 2 hours @ 37° C., flow cytometry, PC-3): 460; Fold increase ([1]; Table 9, PC3, malignant): 5.8; Fold increase [4]: 2.7; Fold increase [5]: 11.7; Fold increase [6]: 11.4
